From patent US10150751B2 (Merck Sharp & Dohme Corp., priority 2014, dated 2018) come the findings set out here.

Where only a bound is given, the exact number is not on record here.

For test [1], the target named is hOX1R (orexin-1 receptor) (Homo sapiens, UniProt O43613). Kind of test: FLIPR Ca2+ flux assay, hOX1R. It counts as cell-based. Conditions: CHO cells expressing the orexin-1 receptor (head: hOX1R; method: rat); agonist 70 pM Ala-6,12 orexin-A. (In general: A change in cytosolic calcium serves as a functional read-out for many receptors and channels.)
Test [2] addresses human orexin-2 receptor (Homo sapiens (Human), UniProt O43614). Description: FLIPR Ca2+ flux assay, hOX2R. Conditions: CHO cells expressing the human orexin-2 receptor; agonist 70 pM Ala-6,12 orexin-A. In kind it is cell-based. How it is done: The utility of the compounds in accordance with the present invention as orexin receptor OX1R and/or OX2R antagonists may be readily determined without undue experimentation by methodology well known in the art, including the “FLIPR Ca^2+ Flux Assay” (Okumura et al., Biochem. Biophys. Res. Comm. 280:976-981, 2001). In a typical experiment the OX1 and OX2 receptor antagonistic activity of the compounds of the present invention was determined in accordance with the following experimental method. For intracellular calcium measurements, Chinese hamster ovary (CHO) cells expressing the rat orexin-1 receptor or the human orexin-2 receptor, are grown in Iscove's modified DMEM containing 2 mM L-glutamine, […], 1% hypoxanthine-thymidine supplement, 100 U/ml penicillin, 100 μg/ml streptomycin and 10% heat-inactivated fetal calf serum (FCS). The cells are seeded at 20,000 cells/well into Becton-Dickinson black 384-well clear bottom sterile plates coated with poly-D-lysine. All reagents were from GIBCO-Invitrogen Corp. The seeded plates are incubated overnight at 37° C. and 5% CO2. Ala-6,12 human orexin-A as the agonist is prepared as a 1 mM stock solution in 1% bovine serum albumin (BSA) and diluted in assay buffer (HBSS containing 20 mM HEPES, 0.1% BSA and 2.5 mM probenecid, pH7.4) for use in the assay at a final concentration of 70pM. Test compounds are prepared as 10 mM stock solution in DMSO, then diluted in 384-well plates, first in DMSO, then assay buffer. On the day of the assay, cells are washed 3 times with 100 μl assay buffer and then incubated for 60 min (37° C., 5% CO2) in 60 μl assay buffer containing 1 μM Fluo-4AM ester, 0.02% pluronic acid, and 1% BSA. The dye loading solution is then aspirated and cells are washed 3 times with 100 μl assay buffer. 30 μl of that same buffer is left in each well. Within the Fluorescent Imaging Plate Reader (FLIPR, Molecular Devices), test compounds are added to the plate in a volume of 25 μl, incubated for 5 min and finally 25 μl of agonist is added. Fluorescence is measured for each well at 1 second intervals for 5 minutes and the height of each fluorescence peak is compared to the height of the fluorescence peak induced by 70 pM Ala-6,12 orexin-A with buffer in place of antagonist. For each antagonist, IC50 value (the concentration of compound needed to inhibit 50% of the agonist response) is determined. Alternatively, compound potency can be assessed by a radioligand binding assay (described in Bergman et. al. Bioorg. Med. Chem. Lett. 2008, 18, 1425-1430) in which the inhibition constant (Ki) is determined in membranes prepared from CHO cells expressing either the OX1 or OX2 receptor. The intrinsic orexin receptor antagonist activity of a compound which may be used in the present invention may be determined by these assays.

A word on the IC50: it is the point on the concentration scale where inhibition reaches its midpoint. Higher therefore signals weaker potency.

Sequence of human orexin-2 receptor (O43614 whole entry): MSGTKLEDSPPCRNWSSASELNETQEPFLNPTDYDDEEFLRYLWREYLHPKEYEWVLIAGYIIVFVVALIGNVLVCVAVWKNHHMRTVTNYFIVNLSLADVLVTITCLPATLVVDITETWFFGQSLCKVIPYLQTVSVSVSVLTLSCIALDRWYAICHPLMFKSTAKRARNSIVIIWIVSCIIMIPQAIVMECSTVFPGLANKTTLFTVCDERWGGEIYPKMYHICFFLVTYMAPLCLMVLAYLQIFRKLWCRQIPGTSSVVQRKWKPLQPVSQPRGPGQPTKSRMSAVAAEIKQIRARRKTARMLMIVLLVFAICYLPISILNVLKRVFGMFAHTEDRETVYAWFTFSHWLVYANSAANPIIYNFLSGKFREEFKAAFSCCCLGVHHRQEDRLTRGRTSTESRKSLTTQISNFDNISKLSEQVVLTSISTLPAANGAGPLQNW

In the case of `C[C@@H]1C[C@@H](Nc2cc(OCC(F)F)ccn2)CN1C(=O)c1ccccc1C1(C#N)CC1` [Example 2, 1-(2-((2R,4R)-4-((4-(2,2-difluoroethoxy)pyridin-2-yl)amino)-2-methylpyrrolidine-1-carbonyl)phenyl)cyclopropanecarbonitrile], the IC50 came to 10000 nM in test [1] and 65.1 nM in test [2].

For the compound `C[C@@H]1C[C@@H](Nc2cc(OCC(F)F)ccn2)CN1C(=O)c1ccccc1-n1ncnn1` [Example 3, (2-(2H-tetrazol-2-yl)phenyl)((2R,4R)-4-((4-(2,2-difluoroethoxy)pyridin-2-yl)amino)-2-methylpyrrolidin-1-yl)methanone], the IC50 is greater than 10000 nM in test [1] and 367 nM in test [2].

As for `C[C@@H]1C[C@@H](Nc2cc(OCC(F)F)ccn2)CN1C(=O)c1ccsc1-c1ncccn1` [Example 4], the IC50 in test [1] is greater than 10000 nM; in test [2] it was 520 nM.

As for `C[C@@H]1C[C@@H](Nc2cc(OCC(F)F)ccn2)CN1C(=O)c1ccsc1-n1nccn1` [Example 5], the IC50 in test [1] is greater than 10000 nM; in test [2], 625 nM.

In the case of `CCOc1ncccc1C(=O)N1C[C@H](Nc2cc(OCC(F)F)ccn2)C[C@H]1C` [Example 6, ((2R,4R)-4-((4-(2,2-difluoroethoxy)pyridin-2-yl)amino)-2-methylpyrrolidin-1-yl)(2-ethoxypyridin-3-yl)methanone], the IC50 in test [1] was greater than 10000 nM; in test [2] it was 989 nM.

`C[C@@H]1C[C@@H](Nc2cc(OCC(F)F)ccn2)CN1C(=O)c1cccc2c1CCC2` [Example 7, ((2R,4R)-4-((4-(2,2-difluoroethoxy)pyridin-2-yl)amino)-2-methylpyrrolidin-1-yl)(2,3-dihydro-1H-inden-4-yl)methanone]: the IC50 was greater than 10000 nM in test [1] and 2000 nM in test [2].

On to `C[C@@H]1C[C@@H](Nc2cc(C(F)F)ccn2)CN1C(=O)c1ccccc1-n1nccn1` [Example 9, (2-(2H-1,2,3-triazol-2-yl)phenyl)((2R,4R)-4-((4-(difluoromethyl)pyridin-2-yl)amino)-2-methylpyrrolidin-1-yl)methanone], for which the IC50 in test [1] came to 1630 nM; in test [2], 13.6 nM.

As for `C[C@@H]1C[C@@H](Nc2ccc(F)cn2)CN1C(=O)c1ccccc1-n1nccn1` [Example 11, (2-(2H-1,2,3-triazol-2-yl)phenyl)((2R,4R)-4-((5-fluoropyridin-2-yl)amino)-2-methylpyrrolidin-1-yl)methanone], the IC50 in test [1] was 6290 nM; in test [2], 175 nM.

For the compound `C[C@@H]1C[C@@H](Nc2nccc3ccccc23)CN1C(=O)c1ccccc1-n1nccn1` [Example 12, (2-(2H-1,2,3-triazol-2-yl)phenyl)((2R,4R)-4-(isoquinolin-1-ylamino)-2-methylpyrrolidin-1-yl)methanone], the IC50 in test [1] is 257 nM; in test [2], 15.3 nM.

`C[C@@H]1C[C@@H](Nc2cc(C(F)(F)F)ccn2)CN1C(=O)c1ccccc1-n1nccn1` [Example 14, (2-(2H-1,2,3-triazol-2-yl)phenyl)((2R,4R)-2-methyl-4-((4-(trifluoromethyl)pyridin-2-yl)amino)pyrrolidin-1-yl)methanone]: the IC50 in test [1] amounted to 1090 nM; in test [2], 26.3 nM.

With `C[C@@H]1C[C@@H](Nc2cc(Cl)ccn2)CN1C(=O)c1ccccc1-n1nccn1` [Example 15, (2-(2H-1,2,3-triazol-2-yl)phenyl)((2R,4R)-4-((4-chloropyridin-2-yl)amino)-2-methylpyrrolidin-1-yl)methanone], the IC50 turned out to be 1160 nM in test [1] and 23.1 nM in test [2].

As for `Cc1ccnc(N[C@@H]2C[C@@H](C)N(C(=O)c3ccccc3-n3nccn3)C2)c1` [Example 16, (2-(2H-1,2,3-triazol-2-yl)phenyl)((2R,4R)-2-methyl-4-((4-methylpyridin-2-yl)amino)pyrrolidin-1-yl)methanone], the IC50 amounted to 4070 nM in test [1] and 75.9 nM in test [2].

`C[C@@H]1C[C@@H](Nc2cc(F)ccn2)CN1C(=O)c1ccccc1-n1nccn1` [Example 17, (2-(2H-1,2,3-triazol-2-yl)phenyl)((2R,4R)-4-((4-fluoropyridin-2-yl)amino)-2-methylpyrrolidin-1-yl)methanone]: the IC50 in test [1] is greater than 10000 nM; in test [2], 119 nM.

`COc1ccnc(N[C@@H]2C[C@@H](C)N(C(=O)c3ccccc3-n3nccn3)C2)c1C#N` [Example 18, 2-(((3R,5R)-1-(2-(2H-1,2,3-triazol-2-yl)benzoyl)-5-methylpyrrolidin-3-yl)amino)-4-methoxynicotinonitrile]: the IC50 in test [1] is greater than 10000 nM; in test [2], 167 nM.

`C[C@@H]1C[C@@H](Nc2cc(C#N)ccn2)CN1C(=O)c1ccccc1-n1nccn1` [Example 19, 2-(((3R,5R)-1-(2-(2H-1,2,3-triazol-2-yl)benzoyl)-5-methylpyrrolidin-3-yl)amino)isonicotinonitrile]: the 50% inhibitory concentration (IC50) in test [1] is greater than 10000 nM; in test [2] it was 22.9 nM.

With `CC(C)Oc1ccnc(N[C@@H]2C[C@@H](C)N(C(=O)c3ccccc3-n3nccn3)C2)c1` [Example 20, (2-(2H-1,2,3-Triazol-2-yl)phenyl)((2R,4R)-4-((4-isopropoxypyridin-2-yl)amino)-2-methylpyrrolidin-1-yl)methanone], the results for the IC50 in test [1] and in test [2] were 2800 nM and 39.8 nM, respectively.

In the case of `CCOc1ccnc(N[C@@H]2C[C@@H](C)N(C(=O)c3ccccc3-n3nccn3)C2)c1` [Example 21, (2-(2H-1,2,3-triazol-2-yl)phenyl)((2R,4R)-4-((4-ethoxypyridin-2-yl)amino)-2-methylpyrrolidin-1-yl)methanone], the results for the IC50 in test [1] and in test [2] were 3990 nM and 31.5 nM, respectively.

For `C[C@@H]1C[C@@H](N(C)c2cc(C#N)ccn2)CN1C(=O)c1ccccc1-n1nccn1` [Example 23, 2-(((3R,5R)-1-(2-(2H-1,2,3-triazol-2-yl)benzoyl)-5-methylpyrrolidin-3-yl)(methyl)amino)isonicotinonitrile], the IC50 in test [1] is greater than 10000 nM. In addition, the “hOX2R FLIPR IC50” value in test [2] is 120/5.

As for `COc1ccnc(N[C@@H]2C[C@@H](C)N(C(=O)c3ccccc3C3(C#N)CC3)C2)c1` [Example 24, 1-(2-((2R,4R)-4-((4-Methoxypyridin-2-yl)amino)-2-methylpyrrolidine-1-carbonyl)phenyl)cyclopropanecarbonitrile], the half-inhibitory concentration (IC50) in test [1] was found to be 2720 nM; in test [2], 23.9 nM.

For the compound `COc1cccnc1N[C@@H]1C[C@@H](C)N(C(=O)c2ccccc2-n2nccn2)C1` [Example 25, (2-(2H-1,2,3-triazol-2-yl)phenyl)((2R,4R)-4-((3-methoxypyridin-2-yl)amino)-2-methylpyrrolidin-1-yl)methanone], the IC50 in test [1] amounted to 3380 nM; in test [2], 36.1 nM.

With `C[C@@H]1C[C@@H](Nc2cc(C(F)F)ccn2)CN1C(=O)c1ccsc1-n1nccn1` [Example 27, (2-(2H-1,2,3-Triazol-2-yl)thiophen-3-yl)((2R,4R)-4-((4-(difluoromethyl)pyridin-2-yl)amino)-2-methylpyrrolidin-1-yl)methanone], the IC50 in test [1] is greater than 10000 nM; in test [2], 67.8 nM.

For `C[C@@H]1C[C@@H](Nc2cc(C(F)F)ccn2)CN1C(=O)c1cscc1-n1nccn1` [Example 28, (4-(2H-1,2,3-triazol-2-yl)thiophen-3-yl)((2R,4R)-4-((4-(difluoromethyl)pyridin-2-yl)amino)-2-methylpyrrolidin-1-yl)methanone], the IC50 is greater than 10000 nM in test [1] and 102 nM in test [2].

Take `C[C@@H]1C[C@@H](Nc2cc(C#N)ccn2)CN1C(=O)c1ccccc1-n1ncnn1` [Example 29, 2-(((3R,5R)-1-(2-(2H-tetrazol-2-yl)benzoyl)-5-methylpyrrolidin-3-yl)amino)isonicotinonitrile]: the IC50 in test [1] is greater than 10000 nM; in test [2], 302 nM.

With `C[C@@H]1C[C@@H](Nc2cc(C#N)ccn2)CN1C(=O)c1ccccc1-c1ncccn1` [Example 30, 2-(((3R,5R)-5-Methyl-1-(2-(pyrimidin-2-yl)benzoyl)pyrrolidin-3-yl)amino)isonicotinonitrile], the IC50 in test [1] was greater than 10000 nM; in test [2], 31.1 nM.
